This is an account of results in patent publication US20230295119A1, “SUBSTITUTED PYRIDINES FOR THE TREATMENT OF INFLAMMATORY DISEASES” (GOSSAMER BIO SERVICES, INC., priority 2020, published 2023).

A word on the IC50: it is the concentration needed to halve the response being measured.

The target in one experiment is human JAK3 (Homo sapiens (Human), UniProt P52333). The experiment can be described thus: JAK3 TR-FRET kinase assay. Particulars: JAK3 0.0125 nM. It counts as biochemical. Background: In TR-FRET formats the signal depends on donor and acceptor labels being close together.
human JAK3, sequence (P52333 whole entry): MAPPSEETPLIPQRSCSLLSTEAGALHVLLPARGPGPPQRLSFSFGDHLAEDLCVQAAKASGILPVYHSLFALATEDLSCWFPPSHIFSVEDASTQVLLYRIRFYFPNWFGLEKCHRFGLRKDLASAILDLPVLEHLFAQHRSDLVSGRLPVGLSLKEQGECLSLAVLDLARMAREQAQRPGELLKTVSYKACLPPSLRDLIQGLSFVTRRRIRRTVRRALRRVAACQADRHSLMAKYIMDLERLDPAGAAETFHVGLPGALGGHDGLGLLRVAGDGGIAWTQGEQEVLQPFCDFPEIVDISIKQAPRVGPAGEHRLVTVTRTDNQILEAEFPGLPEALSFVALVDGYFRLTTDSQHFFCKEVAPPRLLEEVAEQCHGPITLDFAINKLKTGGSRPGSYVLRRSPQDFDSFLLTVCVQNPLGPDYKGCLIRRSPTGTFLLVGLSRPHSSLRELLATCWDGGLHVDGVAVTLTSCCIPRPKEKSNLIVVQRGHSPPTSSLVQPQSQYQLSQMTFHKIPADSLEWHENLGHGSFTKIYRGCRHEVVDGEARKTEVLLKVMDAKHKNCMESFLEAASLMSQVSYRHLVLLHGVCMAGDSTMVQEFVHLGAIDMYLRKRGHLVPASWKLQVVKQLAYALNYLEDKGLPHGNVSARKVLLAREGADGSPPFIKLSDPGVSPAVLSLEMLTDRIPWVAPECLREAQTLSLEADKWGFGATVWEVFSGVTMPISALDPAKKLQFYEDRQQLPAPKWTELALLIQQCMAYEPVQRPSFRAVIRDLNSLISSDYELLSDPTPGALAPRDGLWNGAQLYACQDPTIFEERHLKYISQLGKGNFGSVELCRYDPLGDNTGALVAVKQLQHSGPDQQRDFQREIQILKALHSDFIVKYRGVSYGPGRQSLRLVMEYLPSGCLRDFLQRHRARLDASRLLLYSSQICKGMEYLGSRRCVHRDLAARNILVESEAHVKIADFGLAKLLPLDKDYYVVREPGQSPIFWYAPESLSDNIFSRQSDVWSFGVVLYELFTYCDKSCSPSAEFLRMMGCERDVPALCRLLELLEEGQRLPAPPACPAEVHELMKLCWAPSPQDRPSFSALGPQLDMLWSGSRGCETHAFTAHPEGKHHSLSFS
For the next experiment, the target named is human JAK2 (Homo sapiens (Human), UniProt O60674). The experiment can be described thus: JAK2 TR-FRET kinase assay. Type of experiment: biochemical. The following applies: JAK2 0.025 nM.
human JAK2, sequence (O60674 whole entry): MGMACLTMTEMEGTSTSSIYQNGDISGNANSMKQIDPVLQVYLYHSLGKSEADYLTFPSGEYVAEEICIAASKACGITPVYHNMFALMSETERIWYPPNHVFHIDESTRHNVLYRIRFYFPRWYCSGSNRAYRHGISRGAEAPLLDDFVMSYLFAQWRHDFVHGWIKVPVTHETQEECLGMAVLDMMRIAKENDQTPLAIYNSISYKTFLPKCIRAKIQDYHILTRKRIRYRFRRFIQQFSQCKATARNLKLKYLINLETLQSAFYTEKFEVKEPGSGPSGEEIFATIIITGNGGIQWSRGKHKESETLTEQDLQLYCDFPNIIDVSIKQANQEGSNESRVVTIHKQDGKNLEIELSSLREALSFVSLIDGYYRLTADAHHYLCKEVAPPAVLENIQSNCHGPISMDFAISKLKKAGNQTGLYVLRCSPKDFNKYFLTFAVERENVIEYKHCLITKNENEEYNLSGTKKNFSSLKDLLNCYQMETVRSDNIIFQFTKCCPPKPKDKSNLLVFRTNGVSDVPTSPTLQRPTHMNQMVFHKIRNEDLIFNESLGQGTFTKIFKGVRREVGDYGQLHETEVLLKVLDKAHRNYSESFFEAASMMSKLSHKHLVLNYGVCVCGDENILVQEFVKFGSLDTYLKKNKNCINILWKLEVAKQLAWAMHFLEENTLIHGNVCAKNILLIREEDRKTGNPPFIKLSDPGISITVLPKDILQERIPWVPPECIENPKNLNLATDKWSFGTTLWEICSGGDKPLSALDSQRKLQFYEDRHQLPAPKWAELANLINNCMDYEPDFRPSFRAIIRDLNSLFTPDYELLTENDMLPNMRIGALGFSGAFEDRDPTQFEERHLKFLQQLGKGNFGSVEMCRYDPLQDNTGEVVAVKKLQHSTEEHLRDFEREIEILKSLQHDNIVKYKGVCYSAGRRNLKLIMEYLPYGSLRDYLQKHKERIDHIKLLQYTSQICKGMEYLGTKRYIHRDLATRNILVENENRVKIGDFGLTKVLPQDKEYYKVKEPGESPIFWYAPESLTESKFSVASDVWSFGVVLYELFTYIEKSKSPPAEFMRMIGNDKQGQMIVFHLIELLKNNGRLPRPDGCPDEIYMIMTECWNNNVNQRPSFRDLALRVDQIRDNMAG
The target in another experiment is human JAK1 (Homo sapiens (Human), UniProt P23458). Briefly: JAK1 TR-FRET kinase assay. Type of experiment: biochemical. The following applies: TR-FRET, JAK1 2.5 nM.
human JAK1, sequence (P23458 whole entry, the tested form may be a part): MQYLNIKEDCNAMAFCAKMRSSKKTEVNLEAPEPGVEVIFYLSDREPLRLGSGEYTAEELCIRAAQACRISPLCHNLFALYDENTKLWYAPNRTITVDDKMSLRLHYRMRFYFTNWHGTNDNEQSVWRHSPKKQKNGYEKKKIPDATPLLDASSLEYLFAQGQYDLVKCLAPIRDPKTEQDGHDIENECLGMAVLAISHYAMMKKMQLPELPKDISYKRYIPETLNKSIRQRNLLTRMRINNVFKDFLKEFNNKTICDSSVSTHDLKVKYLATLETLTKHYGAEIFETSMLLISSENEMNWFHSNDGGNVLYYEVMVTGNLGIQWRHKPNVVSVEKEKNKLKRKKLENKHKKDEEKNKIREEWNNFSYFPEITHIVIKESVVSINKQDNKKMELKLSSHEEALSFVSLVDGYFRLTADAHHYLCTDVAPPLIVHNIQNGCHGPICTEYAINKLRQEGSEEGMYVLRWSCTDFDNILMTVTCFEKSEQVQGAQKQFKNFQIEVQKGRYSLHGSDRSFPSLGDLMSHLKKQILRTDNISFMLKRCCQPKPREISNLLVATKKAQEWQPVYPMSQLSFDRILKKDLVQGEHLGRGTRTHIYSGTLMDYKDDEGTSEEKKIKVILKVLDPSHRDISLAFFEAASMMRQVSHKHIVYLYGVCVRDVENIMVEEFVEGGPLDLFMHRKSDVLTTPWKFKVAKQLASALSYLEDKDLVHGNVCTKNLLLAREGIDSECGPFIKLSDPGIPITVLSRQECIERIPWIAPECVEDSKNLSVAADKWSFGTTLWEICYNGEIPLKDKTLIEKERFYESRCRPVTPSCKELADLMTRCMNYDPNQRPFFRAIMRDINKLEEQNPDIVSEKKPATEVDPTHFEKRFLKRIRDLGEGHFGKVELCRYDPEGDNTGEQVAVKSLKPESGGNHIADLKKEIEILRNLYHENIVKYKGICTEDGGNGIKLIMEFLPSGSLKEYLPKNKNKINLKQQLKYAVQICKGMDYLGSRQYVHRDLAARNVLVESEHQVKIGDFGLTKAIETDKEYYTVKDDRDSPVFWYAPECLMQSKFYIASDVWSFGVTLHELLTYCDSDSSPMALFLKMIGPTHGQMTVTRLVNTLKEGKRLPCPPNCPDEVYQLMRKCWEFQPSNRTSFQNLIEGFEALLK
The target in a further experiment is TYK2 JH2 domain (Homo sapiens (Human), UniProt P29597). The experiment can be described thus: TYK2 JH2 NanoBRET assay. Type of experiment: binding. The following applies: Table 20, read-out: TYK2 IC50. As for the experimental part: HEK293T cells were transfected with NanoLuc-TYK2 JH2 Fusion Vector (Promega, customized) using Trans-IT reagent (Mirus, #MIR2700) and incubated for overnight in 37° C. incubator. […] Add 85 µL of cell suspension into white, polypropylene, 96-well plates (Corning, #3600). 90 µL of cells were used for no tracer control samples. 5 µL of diluted NanoBRET K10 tracer (Promega, #CS1810C122) were added to cells to a final concentration of 0.5 µM. Test compounds were diluted into DMSO, and then phenol-free opti-MEM to 10X of final concentration. 10 µL of diluted compounds were added into each well. The cells were incubated with test compound and tracer for 2 hours. 3XNanoBRET® Nano-Glo® Substrate and Extracellular NanoLuc® Inhibitor mixture were prepared and 50 µL of the mixture were added into the wells and mixed. […] NanoBRET signal was determined by using the ratio of acceptor signal and donor signal.
TYK2 JH2 domain, sequence (P29597 589-875): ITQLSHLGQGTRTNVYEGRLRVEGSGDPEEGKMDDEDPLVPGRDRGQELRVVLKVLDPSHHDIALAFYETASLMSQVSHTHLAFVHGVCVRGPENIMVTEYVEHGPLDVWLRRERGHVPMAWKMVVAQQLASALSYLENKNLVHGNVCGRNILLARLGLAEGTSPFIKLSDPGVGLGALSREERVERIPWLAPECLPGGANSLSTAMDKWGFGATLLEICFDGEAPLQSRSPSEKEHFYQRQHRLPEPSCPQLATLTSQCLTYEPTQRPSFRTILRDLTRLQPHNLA
(In general: BRET reads energy transfer from a luciferase to a nearby fluorophore.)

SMILES strings stand for the structures.

Regarding `CCC(=O)c1cnc(Nc2cccc(C(=O)NC)n2)cc1Nc1cccc(-c2ncn(C)n2)c1OC` [Compound 8K], the IC50 on human JAK3 was at least 500 nM; against human JAK2, at least 500 nM; against human JAK1 it was at least 500 nM; at TYK2 JH2 domain it was under 5 nM.
For the compound `CCC(=O)c1cnc(Nc2cccc(C(=O)N(C)C)n2)cc1Nc1cccc(-c2ncn(C)n2)c1OC` [Compound 8L], the IC50 on human JAK3 was at least 500 nM; against human JAK2, at least 500 nM; against human JAK1, at least 500 nM; at TYK2 JH2 domain, 5 to 50 nM.
`CCC(=O)c1cnc(Nc2cc(C(N)=O)ncn2)cc1Nc1cccc(-c2ncn(C)n2)c1OC` [Compound 8M]: the IC50 against human JAK3 is at least 500 nM; at human JAK2 it was at least 500 nM; at human JAK1 it was at least 500 nM; on TYK2 JH2 domain it was under 5 nM.
Take `CCC(=O)c1cnc(Nc2cc(C(=O)NC)ncn2)cc1Nc1cccc(-c2ncn(C)n2)c1OC` [Compound 8N]: the IC50 is at least 500 nM against human JAK3, at least 500 nM on human JAK2, at least 500 nM at human JAK1 and under 5 nM at TYK2 JH2 domain.
For `CCC(=O)c1cnc(Nc2cc(C(=O)N(C)C)ncn2)cc1Nc1cccc(-c2ncn(C)n2)c1OC` [Compound 8O], the IC50 at human JAK3 is at least 500 nM; at human JAK2 it was at least 500 nM; against human JAK1, at least 500 nM; at TYK2 JH2 domain it was under 5 nM.
For the compound `CCC(=O)c1cnc(Nc2ccc(CN(C)C)cn2)cc1Nc1cccc(-c2ncn(C)n2)c1OC` [Compound 9A, 1-(6-((5-((dimethylamino)methyl)pyridin-2-yl)amino)-4-((2-methoxy-3-(1-methyl-1H-1,2,4-triazol-3-yl)phenyl)amino)pyridin-3-yl)propan-1-one], the IC50 against human JAK3 is at least 500 nM; against human JAK2 it was at least 500 nM; against human JAK1, at least 500 nM; on TYK2 JH2 domain, under 5 nM.
For the compound `CCC(=O)c1cnc(Nc2cnc(CN3CCCC3)cn2)cc1Nc1cccc(-c2ncn(C)n2)c1OC` [Compound 9AAAA], the IC50 at human JAK3 is at least 500 nM; on human JAK2, at least 500 nM; against human JAK1, at least 500 nM; at TYK2 JH2 domain it was under 5 nM.
With `CCC(=O)c1cnc(Nc2ccc([C@H](C)N3CC4(COC4)C3)cn2)cc1Nc1cccc(-c2ncn(C)n2)c1OC` [Compound 9AAA], the half-maximal inhibitory concentration (IC50) was at least 500 nM at human JAK3, at least 500 nM against human JAK2, at least 500 nM at human JAK1 and under 5 nM at TYK2 JH2 domain.
For the compound `CCC(=O)c1cnc(Nc2ccc(C(C)NCC(F)F)cn2)cc1Nc1cccc(-c2ncn(C)n2)c1OC` (stereo not drawn) [Compound 9AA], the 50% inhibitory concentration (IC50) at human JAK3 was 50 to 500 nM; against human JAK2, 50 to 500 nM; against human JAK1, at least 500 nM; at TYK2 JH2 domain, under 5 nM.
Regarding `CCC(=O)c1cnc(Nc2cnc(CN3CCN(C)CC3)cn2)cc1Nc1cccc(-c2ncn(C)n2)c1OC` [Compound 9BBBB], the IC50 at human JAK3 is at least 500 nM; on human JAK2 it was at least 500 nM; on human JAK1 it was at least 500 nM; on TYK2 JH2 domain, under 5 nM.
As to `CCC(=O)c1cnc(Nc2ccc([C@@H](C)N3CC4(COC4)C3)cn2)cc1Nc1cccc(-c2ncn(C)n2)c1OC` [Compound 9BBB], the IC50 against human JAK3 was 50 to 500 nM; against human JAK2, 50 to 500 nM; on human JAK1, at least 500 nM; at TYK2 JH2 domain, under 5 nM.
Turning to `CCC(=O)c1cnc(Nc2ccc(CN(C)CC#N)cn2)cc1Nc1cccc(-c2ncn(C)n2)c1OC` [Compound 9BB], the IC50 on human JAK3 is at least 500 nM; against human JAK2, at least 500 nM; at human JAK1 it was at least 500 nM; on TYK2 JH2 domain, 5 to 50 nM.
For the compound `CCC(=O)c1cnc(Nc2ccc(CN)cn2)cc1Nc1cccc(-c2ncn(C)n2)c1OC` [Compound 9B], the IC50 is at least 500 nM against human JAK3, at least 500 nM at human JAK2, at least 500 nM against human JAK1 and under 5 nM at TYK2 JH2 domain.
Take `CCC(=O)c1cnc(Nc2ncc(CN3CCCC3)cc2F)cc1Nc1cccc(-c2ncn(C)n2)c1OC` [Compound 9CCCC]: the IC50 is at least 500 nM against human JAK3, at least 500 nM at human JAK2, at least 500 nM at human JAK1 and 5 to 50 nM at TYK2 JH2 domain.
On to `CCC(=O)c1cnc(Nc2ccc(CN3CC4(CCOC4)C3)cn2)cc1Nc1cccc(-c2ncn(C)n2)c1OC` [Compound 9CCC], for which the IC50 on human JAK3 was at least 500 nM; at human JAK2, at least 500 nM; against human JAK1, at least 500 nM; on TYK2 JH2 domain, under 5 nM.
Consider `CCC(=O)c1cnc(Nc2ccc(C(N)C(F)(F)F)cn2)cc1Nc1cccc(-c2ncn(C)n2)c1OC` (stereo not drawn) [Compound 9CC], for which the IC50 against human JAK3 is at least 500 nM; on human JAK2, at least 500 nM; against human JAK1, at least 500 nM; at TYK2 JH2 domain it was under 5 nM.
Take `CCC(=O)c1cnc(Nc2ccc(CNC)cn2)cc1Nc1cccc(-c2ncn(C)n2)c1OC` [Compound 9C]: the IC50 was at least 500 nM at human JAK3, at least 500 nM on human JAK2, at least 500 nM at human JAK1 and under 5 nM on TYK2 JH2 domain.
Regarding `CCC(=O)c1cnc(Nc2ncc(CN(C)C)cc2F)cc1Nc1cccc(-c2ncn(C)n2)c1OC` [Compound 9DDDD], the IC50 on human JAK3 was at least 500 nM; on human JAK2 it was at least 500 nM; against human JAK1, at least 500 nM; on TYK2 JH2 domain it was 5 to 50 nM.
As for `CCC(=O)c1cnc(Nc2ccc(CN(C)C3COC3)cn2)cc1Nc1cccc(-c2ncn(C)n2)c1OC` [Compound 9DDD], the IC50 on human JAK3 is at least 500 nM; on human JAK2, at least 500 nM; on human JAK1 it was at least 500 nM; on TYK2 JH2 domain it was under 5 nM.
Take `CCC(=O)c1cnc(Nc2ccc(CN3CC(OC)C3)cn2)cc1Nc1cccc(-c2ncn(C)n2)c1OC` [Compound 9DD]: the half-inhibitory concentration (IC50) is at least 500 nM on human JAK3, at least 500 nM against human JAK2, at least 500 nM on human JAK1 and under 5 nM on TYK2 JH2 domain.
As for `CCC(=O)c1cnc(Nc2ccc(CN(C)C)cn2)cc1Nc1cccc(-c2ncc(F)cn2)c1OC` [Compound 9D], the IC50 on human JAK3 was at least 500 nM; on human JAK2, at least 500 nM; at human JAK1, at least 500 nM; on TYK2 JH2 domain, 5 to 50 nM.
As to `CCC(=O)c1cnc(Nc2ncc(CNC)cc2F)cc1Nc1cccc(-c2ncn(C)n2)c1OC` [Compound 9EEEE], the IC50 against human JAK3 is at least 500 nM; against human JAK2, at least 500 nM; against human JAK1, at least 500 nM; at TYK2 JH2 domain, 5 to 50 nM.
Consider `CCC(=O)c1cnc(Nc2ccc(CN(C)C3CC(F)(F)C3)cn2)cc1Nc1cccc(-c2ncn(C)n2)c1OC` [Compound 9EEE], for which the IC50 against human JAK3 was at least 500 nM; on human JAK2, at least 500 nM; at human JAK1, at least 500 nM; at TYK2 JH2 domain, under 5 nM.
As to `CCC(=O)c1cnc(Nc2ccc(CN3CC(F)C3)cn2)cc1Nc1cccc(-c2ncn(C)n2)c1OC` [Compound 9EE], the IC50 is 50 to 500 nM at human JAK3, at least 500 nM at human JAK2, at least 500 nM against human JAK1 and under 5 nM at TYK2 JH2 domain.
Consider `CCC(=O)c1cnc(Nc2ccc(CN(C)C)cn2)cc1Nc1cc(F)cc(-c2ncn(C)n2)c1OC` [Compound 9E], for which the concentration for half-maximal inhibition (IC50) was at least 500 nM against human JAK3, at least 500 nM against human JAK2, at least 500 nM against human JAK1 and under 5 nM at TYK2 JH2 domain.
Take `CCC(=O)c1cnc(Nc2cccc(CN3CCCC3)n2)cc1Nc1cccc(-c2ncn(C)n2)c1OC` [Compound 9FFFF]: the concentration for half-maximal inhibition (IC50) at human JAK3 is at least 500 nM; on human JAK2 it was at least 500 nM; on human JAK1 it was at least 500 nM; on TYK2 JH2 domain, 5 to 50 nM.
As to `CCC(=O)c1cnc(Nc2ccc(CN)nn2)cc1Nc1cccc(-c2ncn(C)n2)c1OC` [Compound 9FFF], the IC50 is at least 500 nM at human JAK3, at least 500 nM at human JAK2, at least 500 nM at human JAK1 and 50 to 500 nM on TYK2 JH2 domain.
As for `CCC(=O)c1cnc(Nc2ccc(CN3CC(C#N)C3)cn2)cc1Nc1cccc(-c2ncn(C)n2)c1OC` [Compound 9FF], the half-inhibitory concentration (IC50) against human JAK3 is 50 to 500 nM; at human JAK2, at least 500 nM; on human JAK1 it was at least 500 nM; at TYK2 JH2 domain, 5 to 50 nM.
For the compound `COc1c(Nc2cc(Nc3ccc(CN(C)C)cn3)ncc2C(=O)C2CC2)cccc1-c1ncn(C)n1` [Compound 9F], the IC50 against human JAK3 was at least 500 nM; against human JAK2, at least 500 nM; against human JAK1, at least 500 nM; on TYK2 JH2 domain, 5 to 50 nM.
Consider `CCC(=O)c1cnc(Nc2cccc(CN3CCCCC3)n2)cc1Nc1cccc(-c2ncn(C)n2)c1OC` [Compound 9GGGG], for which the IC50 on human JAK3 is at least 500 nM; against human JAK2 it was at least 500 nM; on human JAK1, at least 500 nM; at TYK2 JH2 domain, 5 to 50 nM.
Consider `CCC(=O)c1cnc(Nc2ccc(CNC)nn2)cc1Nc1cccc(-c2ncn(C)n2)c1OC` [Compound 9GGG], for which the IC50 against human JAK3 is at least 500 nM; on human JAK2, at least 500 nM; on human JAK1, at least 500 nM; on TYK2 JH2 domain, 5 to 50 nM.
Regarding `CCC(=O)c1cnc(Nc2ccc([C@H](C)N3CC(O)C3)cn2)cc1Nc1cccc(-c2ncn(C)n2)c1OC` [Compound 9GG], the IC50 on human JAK3 was at least 500 nM; against human JAK2, at least 500 nM; on human JAK1, at least 500 nM; on TYK2 JH2 domain it was 5 to 50 nM.
In the case of `CCC(=O)c1cnc(Nc2ccc(C(C)N)cn2)cc1Nc1cccc(-c2ncn(C)n2)c1OC` (stereo not drawn) [Compound 9G], the concentration for half-maximal inhibition (IC50) is at least 500 nM against human JAK3, at least 500 nM on human JAK2, at least 500 nM against human JAK1 and under 5 nM on TYK2 JH2 domain.
